These results are taken from publication PMC11431439, “Study on the Inhibitory Effect of Bioactive Peptides Derived from Yak Milk Cheese on Cholesterol Esterase” (Foods, 2024).

Entries after “also recorded” stand apart in the source; their conditions may differ. Where no end group is shown, it is not given here.

The target in assay [1] is T1, Porcine cholesterol esterase (Sus scrofa, UniProt A0A286ZKB1).
T1 sequence (A0A286ZKB1 1-682): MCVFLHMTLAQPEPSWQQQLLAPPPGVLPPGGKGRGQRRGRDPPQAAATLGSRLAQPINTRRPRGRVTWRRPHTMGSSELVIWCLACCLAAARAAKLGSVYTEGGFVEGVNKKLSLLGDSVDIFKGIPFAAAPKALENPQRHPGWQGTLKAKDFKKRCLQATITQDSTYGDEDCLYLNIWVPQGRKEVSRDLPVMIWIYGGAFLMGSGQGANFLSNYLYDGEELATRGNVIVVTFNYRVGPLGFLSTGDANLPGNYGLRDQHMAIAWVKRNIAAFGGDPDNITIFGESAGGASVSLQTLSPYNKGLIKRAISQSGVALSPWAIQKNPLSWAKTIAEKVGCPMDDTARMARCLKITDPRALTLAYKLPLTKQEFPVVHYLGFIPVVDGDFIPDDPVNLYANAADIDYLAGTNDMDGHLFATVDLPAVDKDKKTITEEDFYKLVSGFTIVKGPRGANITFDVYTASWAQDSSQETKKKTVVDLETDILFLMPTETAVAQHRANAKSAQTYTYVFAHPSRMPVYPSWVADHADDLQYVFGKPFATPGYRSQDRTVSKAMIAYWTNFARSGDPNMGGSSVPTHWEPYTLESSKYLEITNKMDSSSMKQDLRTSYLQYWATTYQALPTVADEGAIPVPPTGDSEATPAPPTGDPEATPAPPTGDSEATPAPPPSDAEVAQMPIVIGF
In words: CE inhibitory activity assay (spectrophotometry). The assay is classed as biochemical. The following applies: for comparative inhibitory activity on CE (in words): authors' ranking, for KQ7 partly integrating molecular dynamics; for concentration dependence of CE inhibition rate: 0.2–1.0 mg/mL; for CE inhibition rate vs control group: all concentrations, p < 0.05. On the procedure:
(§1) Porcine cholesterol esterase and the ELISA kit were provided by Jiangsu JINGMEI Biotechnology Co., Ltd. (Yancheng, China).
(§2) In the formula, ODs: is the absorbance value of the sample group; ODsb: is the absorbance value of the sample blank group; ODc: is the absorbance value of the control group; and ODb: is the absorbance value of the blank group.
(§3) Each experimental sample was tested in triplicate, and the data were processed using IBM SPSS Statistics 26 software. Figures were generated using Origin 2018 and GraphPad Prism 8.0.2 software.

Assay [2] concerns the target T1, Porcine cholesterol esterase. In words: CE inhibitory activity after simulated gastrointestinal digestion (pepsin, trypsin). The following applies: for CE inhibition after digestion (in words): after simulated gastrointestinal digestion; for change of CE inhibition on digestion (in words): simulated gastrointestinal digestion, KQ7, QP13, VN10 at 60 min, RK7 within 120 min. The assay is classed as biochemical.
Description: as §1, §2
We dissolved the synthesized peptide aqueous solution in pepsin (enzyme: substrate 1:50 w/w) and adjusted the pH to 2 using 1 mol/L HCl. Then, we hydrolyzed this at 37 °C for 90 min, then adjusted the pH to 7.5 with 1 mol/L NaOH solution and added trypsin (enzyme: substrate 1:50 w/w). Next, we hydrolyzed this at 37 °C for 180 min in a constant temperature water bath. Subsequently, we inactivated this by boiling it in a 95 °C water bath for 10 min. Finally, we took samples every 30 min and stored each sample at −20 °C for later analysis.
The determination of CE activity refers to Section 2.3.5.
as §3

For assay [3] the following is noted: peptide isolated from soybean glycinin; ref [26]; cited from earlier work. An excerpt:
These carbon–hydrogen bonds may have stabilized the QP13–CE complex to some extent, complementing the hydrogen bonds. It formed π–Alkyl bonds with Ile426, Phe119, Ala117, Leu69, and Leu124 through hydrophobic interactions. QP13 also interacted with Asp434, Lys445, Asn118, Met424, Ile426, Tyr75, Thr68, Tyr427, Tyr123, Leu69, Gln440, Asn112, Phe119, and Arg63 through van der Waals f ...

For `CC(C)c1c(C(=O)Nc2ccccc2)c(-c2ccccc2)c(-c2ccc(F)cc2)n1CC[C@@H](O)C[C@@H](O)CC(=O)O` [Atorvastatin, reference compound], the “comparative inhibitory activity on CE (in words)” value in assay [1] was “strongest inhibitory effect on CE”. In addition, inhibition in assay [1] (from inhibition curve, spectrophotometry, triplicate) was half-maximal at 854 µM (IC50).

With “KVLPVPQ [KQ7, Lys-Val-Leu-Pro-Val-Pro-Gln]”, in assay [2], the “CE inhibition after digestion (in words)” value was “effective in inhibiting CE after simulated gastrointestinal digestion” and the “change of CE inhibition on digestion (in words)” value (“change of CE inhibition” for short) is “significant increase in the inhibitory activity; also recorded: significant increase in CE inhibition activity at 60 min during digestion (p < 0.05); also recorded: significantly enhanced after simulated gastrointestinal digestion”. In assay [1], the “concentration dependence of CE inhibition rate” value is “increased with the increase of peptide mass concentration”, the “CE inhibition rate vs control group” value is recorded as “significantly higher than those of the control group at all concentrations (p < 0.05)” and the “comparative inhibitory activity on CE (in words)” value is listed as “highest inhibitory activity on CE; also recorded: higher inhibitory activity against CE compared to RK7; also recorded: highest inhibitory activity against CE”.

In the case of Leu–Pro–Tyr–Pro, the cholesterol effect entry in assay [3] is on record as “demonstrated low cholesterol effects”.

In the case of QEPVLGPVRGPFP [QP13], in assay [2], the “CE inhibition after digestion (in words)” value is recorded as “effective in inhibiting CE after simulated gastrointestinal digestion” and the “change of CE inhibition” value was “significant increases in inhibition activity (p < 0.05)”. Also, in assay [1], the “concentration dependence of CE inhibition rate” value is recorded as “increased with the increase of peptide mass concentration” and the “CE inhibition rate vs control group” value is “significantly higher than those of the control group at all concentrations (p < 0.05)”.

With “RPKHPIK [RK7, Arg-Pro-Lys-His-Pro-Ile-Lys]”, in assay [2], the “CE inhibition after digestion (in words)” value was “effective in inhibiting CE after simulated gastrointestinal digestion” and the “change of CE inhibition” value was “significant increase in the inhibitory activity; also recorded: significant changes observed (p < 0.05); also recorded: significantly enhanced after simulated gastrointestinal digestion”. Moreover, in assay [1], the “concentration dependence of CE inhibition rate” value was “increased with the increase of peptide mass concentration” and the “CE inhibition rate vs control group” value was “significantly higher than those of the control group at all concentrations (p < 0.05)”.

For VYPFPGPIPN [VN10], in assay [2], the “CE inhibition after digestion (in words)” value is “effective in inhibiting CE after simulated gastrointestinal digestion” and the “change of CE inhibition” value is recorded as “significant increases in inhibition activity (p < 0.05)”. In assay [1], the “concentration dependence of CE inhibition rate” value is given as “increased with the increase of peptide mass concentration” and the “CE inhibition rate vs control group” value is “significantly higher than those of the control group at all concentrations (p < 0.05)”.
